The structures appear in SMILES notation.

Drawing on the RepoRT retention time repository, this text covers LC retention time for 70 molecules.

The data set is described as follows: Waters ACQUITY UPLC BEH C18, 100 × 2.1 mm, 1.7 µm, 40 °C, 0.3 to 0.4 mL/min, estimated dead time 0.63 min; A: water + 0.1% formic acid; B: methanol + 0.1% formic acid; gradient (min/%B) 0/0.5 0.1/0.5 10/80 10.1/99.5 12/99.5. The note with it: stereoisomer not certain.

With `CN1CCCC1c1cccnc1` (stereo not given), the LC retention time is 1.62 min.
Take `COc1cc(C=CC=O)ccc1O`: the LC retention time was 4.76 min.
The figure for `C=CC1CN2CCC1CC2C(O)c1ccnc2ccccc12` (stereo not given) is 3.09 min; for `CC1=C(O)C(=O)CC(OC2CC(C)(C)CC3C4=CCC5C6(C)CCC(OC7OC(C(=O)O)C(O)C(O)C7OC7OCC(O)C(O)C7OC7OC(C)C(O)C(O)C7O)C(C)(CO)C6CCC5(C)C4(C)CCC23C)O1` (stereo not given) it is 7.79 min; for `CC1CCC2(NC1)OC1CC3C4CCC5CC(OC6OC(CO)C(OC7OC(CO)C(O)C(OC8OCC(O)C(O)C8O)C7OC7OC(CO)C(O)C(O)C7O)C(O)C6O)CCC5(C)C4CCC3(C)C1C2C` (stereo not given) it is 4.81 min.
Regarding `C=CC1CN2CCc3c([nH]c4ccccc34)C2CC1C(=COC)C(=O)OC` (stereo not given), the LC retention time was 5.68 min.
On to `COc1ccc(-c2coc3cc(OC4OC(COC(=O)CC5CCNCC5)C(O)C(O)C4O)ccc3c2=O)cc1` (stereo not given), for which the LC retention time is 4.67 min.
`Cc1cc2[nH]c(=O)c(=O)n(CC(O)C(O)C(O)CO)c2cc1C` (stereo not given): the LC retention time was 3.3 min.
As for `O=C(C=Cc1ccccc1)c1ccccc1`, the LC retention time is 9.02 min.
With `CC=C1CN(C)C2Cc3c([nH]c4ccccc34)C(c3cc4[nH]c5c(c4cc3OC)CCN3CC4CC(CC)C3C5(C(=O)OC)C4)CC1C2C(=O)OC` (stereo not given), the LC retention time is 4.94 min.
In the case of `CCN1CC2(C)CCC(O)C34C5CC6C(OC)CC(O)(C(CC23)C14)C5C6O` (stereo not given), the LC retention time is 2.89 min.
In the case of `CS(=O)CCCCCCCC(N)C(=O)O` (stereo not given) it was 2.28 min.
Consider `O=C(C=Cc1ccc(O)cc1)OCC1OC(OC2C(c3c(O)cc4oc(-c5ccc(O)cc5)cc(=O)c4c3O)OC(CO)C(O)C2O)C(O)C(O)C1O` (stereo not given), for which the LC retention time was 4.21 min.
`CC1(C)CCC2(C(=O)O)CCC3(C)C(=CCC4C5(C)CC(O)C(OC6OC(CO)C(OC7OC(CO)C(O)C(O)C7O)C(O)C6O)C(C)(CO)C5CCC43C)C2C1` (stereo not given): the LC retention time was 7.01 min.
Take `CC(C)=CCCC(C)(OC1OC(CO)C(O)C(O)C1O)C1CCC2(C)C1C(O)CC1C3(C)CCC(O)C(C)(C)C3C(O)CC12C` (stereo not given): the LC retention time is 6.59 min.
On to `CN1c2cc(O)c(N=NC(N)=O)cc2CC1S(=O)(=O)O` (stereo not given), for which the LC retention time was 2.69 min.
Consider `CC1CCC2C(C)C3C(CC4C5CC=C6CC(OC7OC(CO)C(O)C(OC8OC(CO)C(O)C(O)C8O)C7OC7OC(C)C(O)C(O)C7O)CCC6(C)C5CCC43C)N2C1` (stereo not given), for which the LC retention time is 4.95 min.
Turning to `O=C1CC(c2ccc(O)cc2)Oc2cc(OC3OC(CO)C(O)C(O)C3O)cc(O)c21` (stereo not given), the LC retention time was 4.52 min.
Turning to `CC(C)C(O)(C(=O)OCC1=CCN2CCC(O)C12)C(C)O` (stereo not given), the LC retention time was 2.75 min.
For the molecule `CC(CSCC(NC(=O)CCC(NCC1(O)OCC(O)C(O)C1O)C(=O)O)C(=O)NCC(=O)O)C(=O)O` (stereo not given), the LC retention time is 2.4 min.
For `COc1ccc2c(c1)[nH]c1c(C)nccc12`, the LC retention time was 4.11 min.
Turning to `COc1ccc(-c2cc(=O)c3c(O)cc(OC4OC(COC5OC(C)C(O)C(O)C5O)C(O)C(O)C4O)cc3o2)cc1` (stereo not given), the LC retention time is 5.19 min.
As for `NC(CCC(=O)NC(Cc1ccccc1)C(=O)O)C(=O)O` (stereo not given), the LC retention time is 3.04 min.
The figure for `O=c1cc(-c2ccc(O)cc2)oc2cc(O)c(C3OCC(O)C(O)C3OC3OC(CO)C(O)C(O)C3O)c(O)c12` (stereo not given) is 4.21 min; for `COC(=O)C1=COC(C)C2CN3CCc4c([nH]c5ccccc45)C3CC12` (stereo not given) it is 4.87 min; for `CC(N)C(=O)NC(Cc1ccccc1)C(=O)O` (stereo not given) it is 2.84 min.
On to `CCCCCC=CCC=CCCCCCCCC(=O)OCC(O)COP(=O)(O)OCCN` (stereo not given), for which the LC retention time was 9.24 min.
As for `CS(=O)C=CCCN=C=S` (stereo not given), the LC retention time was 3.77 min.
On to `O=C1CC(c2ccc(O)cc2)Oc2cc(O)cc(O)c21` (stereo not given), for which the LC retention time is 5.95 min.
`COc1ccc(-c2cc(=O)c3c(O)cc(O)cc3o2)cc1-c1c(O)cc(O)c2c(=O)cc(-c3ccc(O)cc3)oc12`: the LC retention time was 6.07 min.
For `COc1cc(C=O)ccc1OC(C)=O`, the LC retention time is 5.59 min.
Consider `CC1CCC2(OC1)OC1CC3C4CC=C5CC(O)CC(OC6OCC(O)C(O)C6OC6OC(C)C(O)C(O)C6O)C5(C)C4CCC3(C)C1C2C` (stereo not given), for which the LC retention time is 8.57 min.
With `COc1ccc2c(c1)OC(O)C(=O)N2O` (stereo not given), the LC retention time was 2.59 min.
In the case of `O=c1c(O)c(-c2ccc(O)cc2)oc2cc(O)cc(O)c12`, the LC retention time was 6.01 min.
For `C=CC1C(OC2OC(CO)C(O)C(O)C2O)OC=C2C(=O)N3Cc4cc5ccccc5nc4C3CC21` (stereo not given), the LC retention time is 5.27 min.
The figure for `CC1OC(OC2C(COC3OC(CO)C(O)C(O)C3O)OC(OC3CCC4(C)C(CCC5(C)C4C=CC4=C6CC(C)(C)CCC6(CO)C(O)CC45C)C3(C)C)C(O)C2O)C(O)C(O)C1O` (stereo not given) is 6.29 min; for `CSCC(NC(=O)CCC(NCC1(O)OCC(O)C(O)C1O)C(=O)O)C(=O)O` (stereo not given) it is 2.12 min.
The figure for `CC(CCC1(O)OC2CC3C4CCC5CC(OC6OC(CO)C(OC7OC(CO)C(O)C(O)C7OC7OC(CO)C(O)C(O)C7O)C(O)C6O)CCC5(C)C4CCC3(C)C2C1C)COC1OC(CO)C(O)C(O)C1O` (stereo not given) is 4.91 min; for `CCC1(O)C(=O)OCc2c1cc1n(c2=O)Cc2cc3ccccc3nc2-1` (stereo not given) it is 5.4 min; for `CC1OC(Oc2cc(O)c3c(=O)c(OC4OC(COC5OC(CO)C(O)C(O)C5O)C(O)C(O)C4O)c(-c4ccc(O)cc4)oc3c2)C(O)C(O)C1O` (stereo not given) it is 3.62 min.
On to `O=C(O)C1OC(Oc2ccc(-c3oc4cc(O)c(C5OC(CO)C(O)C(O)C5O)c(O)c4c(=O)c3C3OC(CO)C(O)C(O)C3O)cc2)C(O)C(O)C1O` (stereo not given), for which the LC retention time is 4.68 min.
For `CC=CS(=O)CC(NC(=O)CCC(N)C(=O)O)C(=O)O` (stereo not given), the LC retention time is 1.79 min.
Turning to `CN(C)CCc1ccc(O)cc1`, the LC retention time was 2.05 min.
In the case of `CS(=O)CCCCC(=NOS(=O)(=O)O)SC1OC(CO)C(O)C(O)C1O` (stereo not given) it was 1.74 min; in that of `CC(O)(CC(=O)O)CC(=O)OCC1OC(Oc2c(-c3ccc(O)cc3)oc3cc(O)cc(O)c3c2=O)C(O)C(O)C1O` (stereo not given), 4.5 min.
In the case of `COc1cc(C=CC(=O)OC2C(OC3C(Oc4c(-c5ccc(O)cc5)oc5cc(OC6OC(CO)C(OC7OC(CO)C(O)C(O)C7O)C(O)C6O)cc(O)c5c4=O)OC(CO)C(O)C3O)OC(CO)C(O)C2O)ccc1O` (stereo not given) it was 4.01 min.
For the molecule `COc1ccc2c(c[n+](C)c3c4cc5c(cc4ccc23)OCO5)c1OC`, the LC retention time is 5.3 min.
`CC1CCC2C(C)C3C(CC4C5C(=O)C=C6CC(OC7OC(CO)C(OC8OC(C)C(O)C(O)C8O)C(O)C7OC7OC(C)C(O)C(O)C7O)CCC6(C)C5CCC43C)N2C1` (stereo not given): the LC retention time was 4.52 min.
Consider `CC1CCC2(OC1O)OC1CC3C4CC=C5CC(OC6OC(CO)C(OC7OC(C)C(O)C(O)C7O)C(O)C6OC6OC(C)C(O)C(O)C6O)CCC5(C)C4CCC3(C)C1C2C` (stereo not given), for which the LC retention time is 5.71 min.
As for `COc1ccc(-c2cc(=O)c3c(O)cc(OC4OC(CO)C(O)C(O)C4OC4OC(C)C(O)C(O)C4O)cc3o2)cc1O` (stereo not given), the LC retention time is 4.47 min.
On to `C=C1CCCC2(C)CC3(O)OC(=O)C(C)=C3CC12` (stereo not given), for which the LC retention time is 7.91 min.
Take `COC(=O)C1CC23CCCN4CCC5(c6ccccc6NC15CC2)C43` (stereo not given): the LC retention time was 3.92 min.
The figure for `CC1OC(OC2C(O)COC(OC3C(C)OC(OC4C(OC(=O)C56CCC(C)(C)CC5C5=CCC7C8(C)CCC(OC9OC(CO)C(O)C(O)C9O)C(C)(CO)C8CCC7(C)C5(C)CC6O)OCC(O)C4O)C(O)C3O)C2O)C(O)C(O)C1O` (stereo not given) is 5.79 min.
For the molecule `CC=C1CN2C3CC1C1COC(c4c3[nH]c3cc(OC)ccc43)C12` (stereo not given), the LC retention time was 4.42 min.
As to `CC1(C(=O)O)CCC2(C)CCC3(C)C(=CCC4C5(C)CCC(OC6OC(C(=O)O)C(O)C(O)C6OC6OC(C(=O)O)C(O)C(O)C6O)C(C)(C)C5CCC43C)C2C1` (stereo not given), the LC retention time is 6.45 min.
For `C=CC1C(OC2OC(CO)C(O)C(O)C2O)OC=C(C(=O)OC)C1CC=O` (stereo not given), the LC retention time was 3.84 min.
Regarding `OCC1OC(Oc2cc3c(O)cc(O)cc3[o+]c2-c2ccc(O)cc2)C(O)C(O)C1O` (stereo not given), the LC retention time is 3.12 min.
Consider `O=c1cc(-c2ccccc2)oc2ccccc12`, for which the LC retention time is 7.75 min.
In the case of `O=c1cc(-c2ccc(O)c(O)c2)oc2c(C3OC(CO)C(O)C(O)C3O)c(O)cc(O)c12` (stereo not given) it was 3.7 min.
The figure for `CCCCC(=O)OC1C(CO)OC(OC2(CO)OC(CO)C(OC(C)=O)C2O)C(OC(=O)CCC)C1OC(=O)CCCC` (stereo not given) is 8.04 min.
Turning to `CC(CCC1(O)OC2CC3C4CC=C5CC(O)CC(OC6OCC(O)C(O)C6OC6OC(C)C(O)C(O)C6O)C5(C)C4CCC3(C)C2C1C)COC1OC(CO)C(O)C(O)C1O` (stereo not given), the LC retention time is 4.48 min.
For `O=C1NCCc2c1[nH]c1ccccc21`, the LC retention time is 5.53 min.
The figure for `OCCc1c[nH]c2ccccc12` is 3.06 min; for `COc1ccc(-c2coc3cc(O)c(CC=C(C)C)c(O)c3c2=O)cc1` it is 8.02 min; for `CCCCCCCCC=CCCCCCCCC(=O)OCC(O)COP(=O)(O)OCCN` (stereo not given) it is 10.2 min.
On to `COc1c2c(cc3c1OCO3)CCN(C)C2`, for which the LC retention time was 3.33 min.
For the molecule `CC(C)=CCC=C(C)C1CCC2(C)C1C(O)CC1C3(C)CCC(OC4OC(CO)C(O)C(O)C4OC4OC(CO)C(O)C(O)C4O)C(C)(C)C3CCC12C` (stereo not given), the LC retention time was 9.63 min.
For `O=c1cc(-c2ccc(O)cc2)oc2cc(O)cc(O)c12`, the LC retention time was 5.89 min.
As to `O=C(O)C1Cc2c([nH]c3ccccc23)CN1` (stereo not given), the LC retention time is 3.35 min.
On to `O=C(O)C1OC(Oc2c(-c3ccc(O)cc3)oc3cc(O)cc(O)c3c2=O)C(O)C(O)C1O` (stereo not given), for which the LC retention time was 4.34 min.
